Values quoted from earlier work as cited in US20040147613A1, “Use of neuroactive substances for the treatment of parkinsons disease and pharmaceutical combination” (priority 2001, published 2004).

Tests used:
[1] = test system: local synapse populations / central projections
[2] = test system: GABAergic axosomatic synapses in the medial prefrontal cortex; conditions: 4-month chronic treatment, rat
[3] = test system: central DA-receptors; conditions: foetal administrations

Molecule: CNCCCN1c2ccccc2CCc2ccccc21 [desipramine]
- axonal sprouting of central projections ([1]; chronic treatment): induces axonal sprouting of central noradrenergic and probably also dopaminergic cortical projections

Molecule: O=C(CCCN1CCC(O)(c2ccc(Cl)cc2)CC1)c1ccc(F)cc1 [haloperidol]
- sprouting of glutamatergic corticostriatal projections ([1]; 14-day chronic treatment): indications of transsynaptic sprouting of glutamatergic corticostriatal projections
- number of GABAergic axosomatic synapses in the medial prefrontal cortex [2]: dramatic rise in the number of GABAergic axosomatic synapses

Molecule: β-endorphin
- effect on central DA-receptors [3]: expression of the plastic capacities, typical of adult rats, of central DA-receptors ceases
